This experiment deals with male C57BL mice. Put plainly: Screening for intestinal growth effects (small intestine and colon mass relative to body weight, small intestine-colon sensitivity index). In kind it is in vivo. The following applies: for Preferential growth of small intestine versus colon (small intestine-colon sensitivity): relative to [Gly2]GLP-2; for colon mass relative to body weight, % [Gly2]GLP-2 / small intestine-colon sensitivity index, (SI/Colon)X/(SI/Colon)[Gly2]GLP-2 %: male C57BL mice, 30 nmol/kg s.c. twice daily for ten days; for small intestine-colon sensitivity index, (SI/Colon)X/(SI/Colon)[Gly2]GLP-2 %: third value column. On the procedure:
The ability of the present compounds to stimulate intestinal growth was determined in male C57BL mice. Individual groups (n=6) of mice were given 30 nmol/kg of each compound, s.c, twice daily for ten consecutive days. For comparison purposes other groups of animals were given either an equimolar dose of [Gly2]GLP-2 (SEQ ID NO:54) or vehicle (phosphate buffered saline, pH 7.4) in the same dosing regimen. Twenty-four hours after the last dose of compound had been given the mice were sacrificed and the small intestine (from the pylorus to the cecum) and the colon (intestine distal to cecum) was emptied and weighed. To correct for slight difference in body weight (BW), the organ mass of the small intestine (SI) and colon were expressed relative to BW. The non-selective reference compound [Gly2]GLP-2 (SEQ ID NO:54) has been reported to stimulate gastrointestinal growth in both esophagus, stomach, small intestine and colon and to evaluate differences in growth pattern induced by compounds, the small intestine-colon sensitivity index of compound X was calculated as:
(SI/Colon)X/(SI/Colon)[Gly2]GLP-2%
Compounds with a small intestine-colon sensitivity greater than or equal to 1.05 were considered relatively selective for the small intestine (Table 15).
Compounds with a small intestine-colon sensitivity smaller than or equal to 0.95 were considered relatively selective for the colon (Table 15).

The mark [1] stands for this setting: 30 nmol/kg s.c. twice daily, ten days.

Entries after “also recorded” stand apart in the source; their conditions may differ. No end group written: not given here.

The values below come from US9580487B2, “Method of treating stomach or bowel-related disorders by administering glucagon-like-peptide-2 (GLP-2) analogues” (Zealand Pharma A/S, priority 2005, dated 2017).

Regarding “[Leu10, Ala11, Ala24]hGLP-2 (1-33)-NH2 [Compound 1840]”, the “colon mass relative to body weight, % [Gly2]GLP-2” value worked out at 131 % [Gly2]GLP-2 and the “small intestine-colon sensitivity index, (SI/Colon)X/(SI/Colon)[Gly2]GLP-2 %” value was 86 % [Gly2]GLP-2. Moreover, the “Preferential growth of small intestine versus colon (small intestine-colon sensitivity)” value under setting [1] was “preferentially stimulating epithelial growth in the colon”.

As for “[Gly2, Glu3, Leu10, Lys11, Ala16,24,28]hGLP-2(1-33)-(Lys)6-NH2 (HGEGSFSDELKTILDALAARDFIAWLIATKITDKKKKKK-NH2) [Compound 1850]”, the “colon mass relative to body weight, % [Gly2]GLP-2” value amounted to 89 % [Gly2]GLP-2 and the “small intestine-colon sensitivity index, (SI/Colon)X/(SI/Colon)[Gly2]GLP-2 %” value was determined as 116 % [Gly2]GLP-2. Moreover, the “Preferential growth of small intestine versus colon (small intestine-colon sensitivity)” value under setting [1] was “preferentially stimulating epithelial growth in the small intestine”.

As for “[Gly2, Glu3, Thr5, Leu10, Ser11, Ala16,24,28]hGLP-2(1-33)-NH2 (HGEGTFSDELSTILDALAARDFIAWLIATKITD-NH2) [Compound 1854]”, the “Preferential growth of small intestine versus colon (small intestine-colon sensitivity)” value under setting [1] is listed as “without preferential growth in small intestine or colon”.

With “[Gly2, Leu10, Ser11, Ala24]hGLP-2(1-30)-K6-NH2 [Compound 1819]”, the “Preferential growth of small intestine versus colon (small intestine-colon sensitivity)” value under setting [1] was “preferentially stimulating epithelial growth in the small intestine”.

For the substance “[Gly2, Glu3, Leu10, Lys11, Ala16,24,28]hGLP-2(1-33)-NH2 (HGEGSFSDELKTILDALAARDFIAWLIATKITD-NH2) [Compound 1859]”, the “colon mass relative to body weight, % [Gly2]GLP-2” value was found to be 73 % [Gly2]GLP-2 and the “small intestine-colon sensitivity index, (SI/Colon)X/(SI/Colon)[Gly2]GLP-2 %” value amounted to 114 % [Gly2]GLP-2. Under setting [1], the “Preferential growth of small intestine versus colon (small intestine-colon sensitivity)” value is on record as “preferentially stimulating epithelial growth in the small intestine”.

For the substance “[Gly2, Glu3, Thr5, Ser8,11, Leu10, Ala16,24,28]hGLP-2(1-33)-(Lys)6-NH2 (HGEGTFSSELSTILDALAARDFIAWLIATKITDKKKKKK-NH2) [Compound 1844]”, the “colon mass relative to body weight, % [Gly2]GLP-2” value was 89 % [Gly2]GLP-2 and the “small intestine-colon sensitivity index, (SI/Colon)X/(SI/Colon)[Gly2]GLP-2 %” value stood at 119 % [Gly2]GLP-2. Besides, the “Preferential growth of small intestine versus colon (small intestine-colon sensitivity)” value under setting [1] was “supplementary increase in the weight of the small intestine without significant effecting the weight of the colon; also recorded: preferentially stimulating epithelial growth in the small intestine”.

As for “[Gly2, Glu3, Thr5, Leu10, Ala11,16,24,28]hGLP-2-(Lys)6-NH2 (HGEGTFSDELATILDALAARDFIAWLIATKITDKKKKKK-NH2) [Compound 1809]”, for the setting “30 nmol/kg s.c. twice daily, ten days, equimolar [Gly2]GLP-2”, the “Small intestine mass relative to [Gly2]GLP-2” value was “significant increase in the weight of the small intestine”. Also, the “Preferential growth of small intestine versus colon (small intestine-colon sensitivity)” value under setting [1] was “preferentially stimulating epithelial growth in the small intestine”.

On to “[Gly2, Thr7, Leu10, Ser8,11, Ala24]hGLP-2(1-30)-K6-NH2 [Compound 1828]”, for which the “Preferential growth of small intestine versus colon (small intestine-colon sensitivity)” value under setting [1] was “without preferential growth in small intestine or colon”.

On to “[Gly2, Glu3, Thr5, Leu10, Lys11, Ala16,24,28]hGLP-2(1-33)-(Lys)6-NH2 (HGEGTFSDELKTILDALAARDFIAWLIATKITDKKKKKK-NH2) [Compound 1851]”, for which the “colon mass relative to body weight, % [Gly2]GLP-2” value came out at 96 % [Gly2]GLP-2 and the “small intestine-colon sensitivity index, (SI/Colon)X/(SI/Colon)[Gly2]GLP-2 %” value stood at 114 % [Gly2]GLP-2. Moreover, the “Preferential growth of small intestine versus colon (small intestine-colon sensitivity)” value under setting [1] is “preferentially stimulating epithelial growth in the small intestine”.

With “[Gly2, Leu10, Ser11, Ala24]hGLP-2(1-30)-NH2 (HGDGSFSDELSTILDNLAARDFIAWLIQTK-NH2) [Compound 1830]”, the “colon mass relative to body weight, % [Gly2]GLP-2” value turned out to be 106 % [Gly2]GLP-2 and the “small intestine-colon sensitivity index, (SI/Colon)X/(SI/Colon)[Gly2]GLP-2 %” value amounted to 94 % [Gly2]GLP-2. In addition, the “Preferential growth of small intestine versus colon (small intestine-colon sensitivity)” value under setting [1] is listed as “preferentially stimulating epithelial growth in the colon”.

“[Gly2, Thr7, Leu10, Lys11, Ala24]hGLP-2(1-30)-NH2 (HGDGSFTDELKTILDNLAARDFIAWLIQTK-NH2) [Compound 1836]”: the “colon mass relative to body weight, % [Gly2]GLP-2” value amounted to 105 % [Gly2]GLP-2 and the “small intestine-colon sensitivity index, (SI/Colon)X/(SI/Colon)[Gly2]GLP-2 %” value is 90 % [Gly2]GLP-2. Besides, the “Preferential growth of small intestine versus colon (small intestine-colon sensitivity)” value under setting [1] is “preferentially stimulating epithelial growth in the colon”.

On to “[Leu10, Ala11, Ala24]hGLP-2 (1-30)-NH2 [Compound 1841]”, for which the “colon mass relative to body weight, % [Gly2]GLP-2” value came out at 126 % [Gly2]GLP-2 and the “small intestine-colon sensitivity index, (SI/Colon)X/(SI/Colon)[Gly2]GLP-2 %” value turned out to be 90 % [Gly2]GLP-2. The “Preferential growth of small intestine versus colon (small intestine-colon sensitivity)” value under setting [1] was “preferentially stimulating epithelial growth in the colon”.

As for “[Gly2, Thr7, Leu10, Lys11, Ala24]hGLP-2(1-30)-K6-NH2 [Compound 1822]”, the “Preferential growth of small intestine versus colon (small intestine-colon sensitivity)” value under setting [1] is recorded as “without preferential growth in small intestine or colon”.

As to “[Gly2, Thr7, Leu10, Ser8,11, Ala24]hGLP-2(1-30)-NH2 (HGDGSFTSELSTILDNLAARDFIAWLIQTK-NH2) [Compound 1832]”, the “Preferential growth of small intestine versus colon (small intestine-colon sensitivity)” value under setting [1] is “without preferential growth in small intestine or colon”.

Regarding “[Gly2, Leu10, Lys11, Ala24]hGLP-2(1-30)-K6-NH2 [Compound 1821]”, the “Preferential growth of small intestine versus colon (small intestine-colon sensitivity)” value under setting [1] was “without preferential growth in small intestine or colon”.

“[Gly2, Leu10, Ala24]hGLP-2-K6-NH2 (HGDGSFSDELNTILDNLAARDFIAWLIQTKITDKKKKKK-NH2) [Compound 1826]”: the “Preferential growth of small intestine versus colon (small intestine-colon sensitivity)” value under setting [1] was “preferentially stimulating epithelial growth in the small intestine”.

Turning to “[Gly2, Glu3, Thr5, Ser8, Leu10, Lys11, Ala16,24,28]hGLP-2(1-33)-NH2 [Compound 1852]”, the “colon mass relative to body weight, % [Gly2]GLP-2” value worked out at 97 % [Gly2]GLP-2 and the “small intestine-colon sensitivity index, (SI/Colon)X/(SI/Colon)[Gly2]GLP-2 %” value was found to be 109 % [Gly2]GLP-2. Further, the “Preferential growth of small intestine versus colon (small intestine-colon sensitivity)” value under setting [1] was “supplementary increase in the weight of the small intestine without significant effecting the weight of the colon; also recorded: preferentially stimulating epithelial growth in the small intestine”.

Consider “[Gly2, Glu3, Thr5, Leu10, Ser11, Ala16,24,28]hGLP-2(1-33)-(Lys)6-NH2 (HGEGTFSDELSTILDALAARDFIAWLIATKITDKKKKKK-NH2) [Compound 1845]”, for which the “colon mass relative to body weight, % [Gly2]GLP-2” value worked out at 98 % [Gly2]GLP-2 and the “small intestine-colon sensitivity index, (SI/Colon)X/(SI/Colon)[Gly2]GLP-2 %” value was found to be 107 % [Gly2]GLP-2. Besides, the “Preferential growth of small intestine versus colon (small intestine-colon sensitivity)” value under setting [1] is recorded as “preferentially stimulating epithelial growth in the small intestine”.

Take “[Thr7, Ser8, Leu10, Lys11, Ala24]hGLP-2 (1-30)-NH2 [Compound 1842]”: the “Preferential growth of small intestine versus colon (small intestine-colon sensitivity)” value under setting [1] is on record as “without preferential growth in small intestine or colon”.

“[Gly2, Leu10, Ser8,11, Ala24]hGLP-2(1-30)-K6-NH2 [Compound 1829]”: the “Preferential growth of small intestine versus colon (small intestine-colon sensitivity)” value under setting [1] is “without preferential growth in small intestine or colon”.

Consider “[Gly2, Thr7, Ser8, Leu10, Lys11, Ala24]hGLP-2(1-30)-K6-NH2 [Compound 1823]”, for which, under setting [1], the “Preferential growth of small intestine versus colon (small intestine-colon sensitivity)” value is reported as “without preferential growth in small intestine or colon”.

“[Gly2, Thr7, Leu10, Ser11, Ala24]hGLP-2(1-30)-K6-NH2 [Compound 1827]”: the “Preferential growth of small intestine versus colon (small intestine-colon sensitivity)” value under setting [1] is on record as “preferentially stimulating epithelial growth in the small intestine”.

“[Gly2, Ser8, Leu10, Ala11,24]hGLP-2(1-30)-NH2 (HGDGSFSSELATILDNLAARDFIAWLIQTK-NH2) [Compound 1825]”: the “Preferential growth of small intestine versus colon (small intestine-colon sensitivity)” value under setting [1] is recorded as “without preferential growth in small intestine or colon”.

For the substance “[Leu10, Ala11, Ala24]hGLP-2 (1-33)-K6-NH2 [Compound 1839]”, the “colon mass relative to body weight, % [Gly2]GLP-2” value came out at 133 % [Gly2]GLP-2 and the “small intestine-colon sensitivity index, (SI/Colon)X/(SI/Colon)[Gly2]GLP-2 %” value came out at 84 % [Gly2]GLP-2. Under setting [1], the “Preferential growth of small intestine versus colon (small intestine-colon sensitivity)” value was “preferentially stimulating epithelial growth in the colon”.

In the case of “[Gly2, Ser8, Leu10, Ala11,24]hGLP-2(1-30)-K6-NH2 [Compound 1818]”, the “Preferential growth of small intestine versus colon (small intestine-colon sensitivity)” value under setting [1] is “supplementary increase in the weight of the small intestine without significant effecting the weight of the colon; also recorded: preferentially stimulating epithelial growth in the small intestine”.

With “[Gly2, Leu10, Lys11, Ala24]hGLP-2(1-30)-NH2 (HGDGSFSDELKTILDNLAARDFIAWLIQTK-NH2) [Compound 1835]”, the “colon mass relative to body weight, % [Gly2]GLP-2” value came out at 105 % [Gly2]GLP-2 and the “small intestine-colon sensitivity index, (SI/Colon)X/(SI/Colon)[Gly2]GLP-2 %” value was 91 % [Gly2]GLP-2. Besides, under setting [1], the “Preferential growth of small intestine versus colon (small intestine-colon sensitivity)” value is on record as “preferentially stimulating epithelial growth in the colon”.
